# Experimental data: patent US11571453B2, “Piper laetispicum extract and preparation method therefor and use thereof” (SUZHOU YI-HUA BIOMEDICAL TECHNOLOGY CO., LTD, priority 2017, dated 2023)
# What was measured:
# Type in all cases: in vivo
# mice = experiment: Light and dark box test in mice; conditions: 2.0 mg/kg oral, 60 min after dose, 5 min test; n = 10, x ± SD
# Protocol: The positive control drug was diazepam. 60 minutes after oral administration, the light and dark box test was implemented. Each mouse is tested for 5 minutes, and each residence time in the light box and the number of shuttles between the light and dark boxes are recorded.
# Wistar rats = experiment: Rat learned helplessness test (conditional avoidance)
# Protocol: Wistar rats were selected and randomly grouped into 10 rats in each group. The learned helplessness test model was used in which the corresponding dose of extracts shown as in Table 5 were administered orally by gavage. The positive control was venlafaxine. Continuous administered for 7 days, one time per day. 24 h after the last oral administration, a conditional avoidance test is implemented.
# Kunming mice [1] = experiment: Mouse swimming test; conditions: 50 mg/kg/d oral, 14 days, 1 h after last dose; n=10, x ± SD
# Protocol: Kunming mice (male, 18-20 g) were randomly divided into 12 groups, each with 10 rats. Each group was given the corresponding dose of extract as shown in Table 4 and normal saline was used as control. The positive control group was venlafaxine. Continuous administered for 14 days, one time per day. One hour after the last oral administration, the mice were placed into a glass tank of 10×20 cm and water depth of 10 cm (water temperature 25° C.) for a swimming test. The swimming duration was 6 minutes, the time to stop motion within 5 minutes was recorded.
# Kunming mice [2] = experiment: Mouse tail hanging test; conditions: 50 mg/kg/d oral, 14 days, 1 h after last dose; n=10, x ± SD
# Protocol: Kunming mice (male, 18-20 g) were randomly divided into 14 groups, each with 10 rats. […] The positive control group was venlafaxine. Continuous administered for 14 days, one time per day. One hour after the last oral administration, the mouse tail hanging test was carried out. The tails of the mice were glued on a wooden bar 50 cm above the table top to make them stand upside down, and the mouse sight was isolated using plates around. The mice would struggle to overcome the abnormal posture, but appear immobile after a period of activity, showing state of despair Duration was 6 minutes, the time of immobility within 6 minutes was recorded.
smiles,measurement,setting,value
"CN1C(=O)CN=C(c2ccccc2)c2cc(Cl)ccc21 [Diazepam, diazepam]",Number of shuttles,mice,14.23 ± 1.06
same,Time (residence time in the light box),mice,121.23 ± 8.12
"COc1ccc(C(CN(C)C)C2(O)CCCCC2)cc1 (stereo not drawn) [Venlafaxine, venlafaxine]",Escape latency,"Wistar rats; 30 mg/kg/d oral gavage, 7 days, 24 h after last dose, u test n = 10, x ± SD",14.15 ± 12.32 s
same,"escape latency of the rats, effect in words","Wistar rats; doses of 10, 5, 2.5 mg/kg/d, compared with the model control group P<0.01",significantly shortened the escape latency
same,Stop motion within 5 min,Kunming mice [1],75.8 ± 19.4 s
same,Immobility time within 6 min,Kunming mice [2],60.9 ± 38.5 s
